From US20260062422A1 (Halda Therapeutics OpCo, Inc., priority 2022, published 2026)

Assays:
[1] = system: VCaP cells; test: Cellular growth inhibition assay for VCaP cells, CellTiter-Glo; assay type: cell-based, human; conditions: Homo sapiens, VCaP, 72 h, 72 hours treatment, CellTiter-Glo 2.0
Procedure, shortened: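 GI50 values come from four-parameter curve fits of luminescence data normalized to a zero baseline. Compound, in medium with 0.5% DMSO, was added one day after plating and left for 72 h before CellTiter-Glo 2.0 addition.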

[2] = system: T-Rex 293 cell line SC cells lacking increased expression of progesterone receptor isoform B protein; test: Cellular growth inhibition, T-Rex 293 SC cells without doxycycline, Example 45; assay type: cell-based; conditions: T-Rex 293 SC cells not exposed to doxycycline, 72 hours treatment, CellTiter-Glo 2.0
Procedure: The following types of cells were prepared for this experiment: (i) a T-Rex 293 cell line having increased expression of progesterone receptor isoform B protein due to exposure to doxycycline and (ii) a T-Rex 293 cell line lacking increased expression of progesterone receptor isoform B protein. Ability of the test compounds to inhibit proliferation of the foregoing cell types was evaluated according to the procedures set forth below.
The doxycycline-inducible progesterone receptor isoform B protein expressing cell line was established using the following protocol: T-Rex 293 cells were purchased from Invitrogen (Cat #R71007) and transfected using Lipofectamine 2000 with the wild-type progesterone receptor B protein sequence cloned into the pcDNA4/TO vector. Transfected cells were selected using 400 μg/mL Zeocin (Invitrogen Cat #R25001). Following selection, single clones were raised and maintained in Dulbecco's Modified Eagle Medium (DMEM) supplemented with 10% w/w Tetracycline-free fetal bovine serum (FBS) and 250 μg/mL Zeocin. Clones were analyzed for expression of progesterone receptor isoform B protein in the presence and absence of 10 ng/mL doxycycline (Sigma Cat #D9891), and a single doxycycline-inducible clone (hereinafter “SC”) was selected for use in downstream assays.
The SC cells were seeded on poly-D-lysine coated, black clear-bottom 384-well plates at 2500/well, in 25 μL Phenol Red Free Dulbecco's Modified Eagle Medium (DMEM) supplemented with 10% w/w charcoal-dextran treated fetal bovine serum (FBS) and 1% w/w pen-strep, with or without 10 ng/mL doxycycline. Pen-Strep is a commercially available mixture of penicillin G and streptomycin, which is used in mammalian cell culture media to prevent bacterial contamination. Phenol Red Free Dulbecco's Modified Eagle Medium (DMEM) supplemented with 10% w/w charcoal-dextran treated fetal bovine serum (FBS) and 1% w/w pen-strep, with or without 10 ng/mL doxycycline is herein referred to as Treatment Medium. Following seeding of cells in the plates, the plates were spun at 300×g for 30 seconds, then equilibrated to room temperature for 30 minutes, and then deposited in a humidified tissue culture incubator maintained at 37° C. with 5% CO2.
At 24 hours after seeding of the cells, dilutions of test compound were prepared in DMSO and dissolved in Treatment Medium, to achieve a final DMSO concentration of 0.5% w/w, thereby providing the Test Compound Solution. A 25 μL aliquot of the Test Compound Solution was added to cells in the well plates. An equal volume of a solution containing DMSO and Treatment Medium was used as a negative control. Following treatment of cells with Test Compound Solution or said equal volume of a solution containing DMSO and Treatment Medium, the plates were spun at 300×g for 30 seconds, and then left in an incubator for 72 hours.
At the end of the treatment duration, cell viability was quantified with CellTiter-Glo 2.0 reagent (Promega Cat #G9243). For this purpose, plates were equilibrated to room temperature for 30 minutes, and then 25 μL of CellTiter-Glo 2.0 reagent was added to cells in the plate wells. Plates were then agitated on a shaker for two minutes at 500 rpm and subsequently incubated at room temperature for 10 minutes. Following incubation, the plates were spun at 3000×g for 30 seconds, then sealed with an optical adhesive cover, and luminescence readings were measured with an EnVision Plate Reader (Perkin Elmer).
Data was normalized using zero luminescence for baseline. A four-parameter non-linear regression curve fit was applied to dose-response data in GraphPad Prism data analysis software to determine the half-maximal growth inhibitory concentration (GI50) for each test compound.

GI50 [1]	SMILES	GI50 [2]
< 500 nM	CCNC(=O)C[C@@H]1N=C(c2ccc(OCCOCCOC3CCN(c4ncc(C(=O)N[C@H]5C(C)(C)[C@H](Oc6ccc(C#N)c(Cl)c6)C5(C)C)cn4)CC3)cc2)c2c(sc(C)c2C)-n2c(C)nnc21 [Compound I-44]	< 500 nM
500 to 1500 nM	CCNC(=O)C[C@@H]1N=C(c2cccc(OCCOC3CCN(c4ncc(C(=O)N[C@H]5C(C)(C)[C@H](Oc6ccc(C#N)c(Cl)c6)C5(C)C)cn4)CC3)c2)c2c(sc(C)c2C)-n2c(C)nnc21 [Compound I-46, N-((1r,3r)-3-(3-chloro-4-cyanophenoxy)-2,2,4,4-tetramethylcyclobutyl)-2-(4-(2-(3-((S)-6-(2-(ethylamino)-2-oxoethyl)-2,3,9-trimethyl-6H-thieno[3,2-f][1,2,4]triazolo[4,3-a][1,4]diazepin-4-yl)phenoxy)ethoxy)piperidin-1-yl)pyrimidine-5-carboxamide]	500 to 1500 nM
< 500 nM	Cc1sc2c(c1C)C(c1ccc(OC3CC4(CCN(c5ncc(C(=O)N[C@H]6C(C)(C)[C@H](Oc7ccc(C#N)c(Cl)c7)C6(C)C)cn5)CC4)C3)cc1)=N[C@@H](Cc1ncco1)c1nnc(C)n1-2 [Compound I-49, N-[3-(3-chloro-4-cyano-phenoxy)-2,2,4,4-tetramethyl-cyclobutyl]-2-[2-[4-[(9S)-4,5,13-trimethyl-9-(oxazol-2-ylmethyl)-3-thia-1,8,11,12-tetrazatricyclo[8.3.0.02,6]trideca-2(6),4,7,10,12-pentaen-7-yl]phenoxy]-7-azaspiro[3.5]nonan-7-yl]pyrimidine-5-carboxamide]	500 to 1500 nM
< 500 nM	CCNC(=O)C[C@@H]1N=C(c2ccc(C#CCN3CCN(c4ncc(C(=O)N[C@H]5C(C)(C)[C@H](Oc6ccc(C#N)c(Cl)c6)C5(C)C)cn4)CC3)cc2)c2c(sc(C)c2C)-n2c(C)nnc21 [Compound I-54, N-[3-(3-chloro-4-cyano-phenoxy)-2,2,4,4-tetramethyl-cyclobutyl]-2-[4-[3-[4-[(9S)-9-[2-(ethylamino)-2-oxo-ethyl]-4,5,13-trimethyl-3-thia-1,8,11,12-tetrazatricyclo[8.3.0.02,6]trideca-2(6),4,7,10,12-pentaen-7-yl]phenyl]prop-2-ynyl]piperazin-1-yl]pyrimidine-5-carboxamide]	< 500 nM
> 3000 nM	Cc1sc2c(c1C)C(c1ccc(C#CCN3CCN(c4ncc(C(=O)N[C@H]5C(C)(C)[C@H](Oc6ccc(C#N)c(Cl)c6)C5(C)C)cn4)CC3)cc1)=N[C@@H](CC(=O)OC(C)(C)C)c1nnc(C)n1-2 [Compound I-55]	500 to 1500 nM
500 to 1500 nM	CCNC(=O)C[C@@H]1N=C(c2ccc(OC3CCN(c4ncc(C(=O)N[C@H]5C(C)(C)[C@H](Oc6ccc(C#N)c(Cl)c6)C5(C)C)cn4)CC3)cc2)c2c(sc(C)c2C)-n2c(C)nnc21 [Compound I-61]	500 to 1500 nM
500 to 1500 nM	CCNC(=O)C[C@@H]1N=C(c2ccc(OCCCC#Cc3ncc(C(=O)N[C@H]4C(C)(C)[C@H](Oc5ccc(C#N)c(Cl)c5)C4(C)C)cn3)cc2)c2c(sc(C)c2C)-n2c(C)nnc21 [Compound I-83]	500 to 1500 nM
500 to 1500 nM	CCNC(=O)C[C@@H]1N=C(c2ccc(Oc3ncc(C(=O)N[C@H]4C(C)(C)[C@H](Oc5ccc(C#N)c(Cl)c5)C4(C)C)cn3)cc2)c2c(sc(C)c2C)-n2c(C)nnc21 [Compound I-84]	500 to 1500 nM
< 500 nM	CCNC(=O)C[C@@H]1N=C(c2ccc(OC3CCN(C4CCN(c5ncc(C(=O)N[C@H]6C(C)(C)[C@H](Oc7ccc(C#N)c(Cl)c7)C6(C)C)cn5)CC4)C3)cc2)c2c(sc(C)c2C)-n2c(C)nnc21 (stereo partly shown) [Compound I-85]	500 to 1500 nM
< 500 nM	CCNC(=O)C[C@@H]1N=C(c2ccc(N(C3CC3)C3CN(CC4CCN(c5ncc(C(=O)N[C@H]6C(C)(C)[C@H](Oc7ccc(C#N)c(Cl)c7)C6(C)C)cn5)CC4)C3)cc2)c2c(sc(C)c2C)-n2c(C)nnc21 [Compound I-129]	500 to 1500 nM
500 to 1500 nM	CCNC(=O)C[C@@H]1N=C(c2ccc(N(C)C3CC(OC4CCN(c5ncc(C(=O)N[C@H]6C(C)(C)[C@H](Oc7ccc(C#N)c(Cl)c7)C6(C)C)cn5)CC4)C3)cc2)c2c(sc(C)c2C)-n2c(C)nnc21 (stereo partly shown) [Compound I-130]	< 500 nM
< 500 nM	Cc1sc2c(c1C)C(c1ccc(CC3CC(C4CCN(c5ncc(C(=O)N[C@H]6C(C)(C)[C@H](Oc7ccc(C#N)c(Cl)c7)C6(C)C)cn5)CC4)C3)cc1)=NC(Cc1ncco1)c1nnc(C)n1-2 (stereo partly shown) [Compound I-136]	> 3000 nM
< 500 nM	Cc1sc2c(c1C)C(c1ccc(CC3CN(CC4CCN(c5ncc(C(=O)N[C@H]6C(C)(C)[C@H](Oc7ccc(C#N)c(Cl)c7)C6(C)C)cn5)CC4)C3)cc1)=N[C@@H](Cc1ncco1)c1nnc(C)n1-2 [Compound I-153]	< 500 nM
< 500 nM	Cc1sc2c(c1C)C(c1ccc(C[C@H]3C[C@@H]([C@@H]4CCCN(c5ncc(C(=O)N[C@H]6C(C)(C)[C@H](Oc7ccc(C#N)c(Cl)c7)C6(C)C)cn5)C4)C3)cc1)=N[C@@H](Cc1ncco1)c1nnc(C)n1-2 [Compound I-161]	> 3000 nM
< 500 nM	Cc1sc2c(c1C)C(c1ccc(OC3CN(CC4CCN(c5ncc(C(=O)N[C@H]6C(C)(C)[C@H](Oc7ccc(C#N)c(Cl)c7)C6(C)C)cn5)CC4)C3)cc1)=N[C@H](Cc1ncco1)c1nnc(C)n1-2 [Compound I-169]	< 500 nM
500 to 1500 nM	Cc1sc2c(c1C)C(c1ccc(O[C@H]3CC[C@@]4(CCCN(c5ncc(C(=O)N[C@H]6C(C)(C)[C@H](Oc7ccc(C#N)c(Cl)c7)C6(C)C)cn5)C4)CC3)cc1)=N[C@@H](Cc1ncco1)c1nnc(C)n1-2 [Compound I-172]	500 to 1500 nM
< 500 nM	Cc1sc2c(c1C)C(c1ccc(N3CC(C4CCN(c5ncc(C(=O)N[C@H]6C(C)(C)[C@H](Oc7ccc(C#N)c(Cl)c7)C6(C)C)cn5)CC4)C3)cc1)=NC(Cc1ncco1)c1nnc(C)n1-2 (stereo partly shown) [Compound I-209]	500 to 1500 nM
< 500 nM	Cc1sc2c(c1C)C(c1ccc(C3CC3C3CC4(CCN(c5ncc(C(=O)N[C@H]6C(C)(C)[C@H](Oc7ccc(C#N)c(Cl)c7)C6(C)C)cn5)CC4)C3)cc1)=N[C@@H](Cc1ncco1)c1nnc(C)n1-2 (stereo partly shown) [Compound I-237]	> 3000 nM
> 3000 nM	Cc1sc2c(c1C)C(c1ccc(CCC3CC4(CCCN(c5ncc(C(=O)N[C@H]6C(C)(C)[C@H](Oc7ccc(C#N)c(Cl)c7)C6(C)C)cn5)C4)C3)cc1)=N[C@@H](Cc1ncco1)c1nnc(C)n1-2 [Compound I-241]	500 to 1500 nM
< 500 nM	Cc1sc2c(c1C)C(c1ccc(C#CC3CC4(CCN(c5ncc(C(=O)N[C@H]6C(C)(C)[C@H](Oc7ccc(C#N)c(Cl)c7)C6(C)C)cn5)CC4)C3)cc1)=N[C@@H](Cc1ncco1)c1nnc(C)n1-2 [Compound I-267]	500 to 1500 nM
1500 to 3000 nM	Cc1sc2c(c1C)C(c1ccc(N3CC(CC4CCN(c5ncc(C(=O)N[C@H]6C(C)(C)[C@H](Oc7ccc(C#N)c(Cl)c7)C6(C)C)cn5)CC4)C3)cc1)=N[C@@H](C)c1nnc(C)n1-2 [Compound I-270]	500 to 1500 nM
> 3000 nM	Cc1sc2c(c1C)C(c1ccc(N3CC(C4CCN(c5ncc(C(=O)N[C@H]6C(C)(C)[C@H](Oc7ccc(C#N)c(Cl)c7)C6(C)C)cn5)CC4)C3)cc1)=N[C@@H](C)c1nnc(C)n1-2 [Compound I-271]	500 to 1500 nM
< 500 nM	Cc1sc2c(c1C)C(c1ccc(OC3CC4(C3)CC3(CCN(c5ncc(C(=O)N[C@H]6C(C)(C)[C@H](Oc7ccc(C#N)c(Cl)c7)C6(C)C)cn5)CC3)C4)cc1)=N[C@@H](Cc1ncco1)c1nnc(C)n1-2 [Compound I-283]	> 3000 nM
